Results on four compounds are retold here after paper PMC9281089 (Journal of Translational Medicine, 2022).

In series [1] the target is SARS-CoV-2 S-protein RBD / ACE2 interaction (UniProt P0DTC2+Q9BYF1). As to the kind of experiment: biochemical. More on the design: species or system SARS-CoV-2 / human. The note with it: EC50 (HTRF), inhibition of binding of S-RBD to ACE2. (TR-FRET usually uses a lanthanide donor and a delayed reading to cut background.)

Values joined by “and” are separate entries in the source; they are usually repeats but may differ in a detail not shown here. Identical values can stand only once. Counter-ions that a name gives are not always drawn.

With `N=C(N)c1ccc2cc(OC(=O)c3ccc(N=C(N)N)cc3)ccc2c1` [Nafamostat mesylate, reference compound], the EC50 in series [1] turned out to be 11.3 µM.

Take `COc1ccc2c3ccnc4ccc(=O)n(c2c1)c43` [TS-984, 9-Methoxycanthin-6-one]: the EC50 in series [1] is 36.2 µM. Further, the “cytotoxicity (comparative)” value in the series on cells (compared with tannic acid and nafamostat mesilate) is “lower cytotoxicity”. In the case of `O=C(OC[C@H]1O[C@@H](OC(=O)c2cc(O)c(O)c(OC(=O)c3cc(O)c(O)c(O)c3)c2)[C@H](OC(=O)c2cc(O)c(O)c(OC(=O)c3cc(O)c(O)c(O)c3)c2)[C@@H](OC(=O)c2cc(O)c(O)c(OC(=O)c3cc(O)c(O)c(O)c3)c2)[C@@H]1OC(=O)c1cc(O)c(O)c(OC(=O)c2cc(O)c(O)c(O)c2)c1)c1cc(O)c(O)c(OC(=O)c2cc(O)c(O)c(O)c2)c1` [tannic acid, reference compound], the cytotoxicity to cells result with cells (at a high concentration (> 30 µM)) is recorded as “strong cytotoxicity”. Further, in the series on cells (when the effective concentration is applied), the “cytotoxicity at effective concentration” value is listed as “higher cytotoxicity that leads to cell death”.

`O=C1c2ccccc2C(=O)c2ccccc21` [TS-1276, anthraquinone]: in series [1], the EC50 is 55.9 µM and 16.4 µM.

For orientation: EC50 means the concentration giving half of the maximal effect. Read a high EC50 as lower potency in that assay.
